According to PMC8494060 (Science translational medicine, 2020):

Molecular target: T1, OGA (Rattus norvegicus, UniProt Q8VIJ5)
T1 sequence (Q8VIJ5 1-916): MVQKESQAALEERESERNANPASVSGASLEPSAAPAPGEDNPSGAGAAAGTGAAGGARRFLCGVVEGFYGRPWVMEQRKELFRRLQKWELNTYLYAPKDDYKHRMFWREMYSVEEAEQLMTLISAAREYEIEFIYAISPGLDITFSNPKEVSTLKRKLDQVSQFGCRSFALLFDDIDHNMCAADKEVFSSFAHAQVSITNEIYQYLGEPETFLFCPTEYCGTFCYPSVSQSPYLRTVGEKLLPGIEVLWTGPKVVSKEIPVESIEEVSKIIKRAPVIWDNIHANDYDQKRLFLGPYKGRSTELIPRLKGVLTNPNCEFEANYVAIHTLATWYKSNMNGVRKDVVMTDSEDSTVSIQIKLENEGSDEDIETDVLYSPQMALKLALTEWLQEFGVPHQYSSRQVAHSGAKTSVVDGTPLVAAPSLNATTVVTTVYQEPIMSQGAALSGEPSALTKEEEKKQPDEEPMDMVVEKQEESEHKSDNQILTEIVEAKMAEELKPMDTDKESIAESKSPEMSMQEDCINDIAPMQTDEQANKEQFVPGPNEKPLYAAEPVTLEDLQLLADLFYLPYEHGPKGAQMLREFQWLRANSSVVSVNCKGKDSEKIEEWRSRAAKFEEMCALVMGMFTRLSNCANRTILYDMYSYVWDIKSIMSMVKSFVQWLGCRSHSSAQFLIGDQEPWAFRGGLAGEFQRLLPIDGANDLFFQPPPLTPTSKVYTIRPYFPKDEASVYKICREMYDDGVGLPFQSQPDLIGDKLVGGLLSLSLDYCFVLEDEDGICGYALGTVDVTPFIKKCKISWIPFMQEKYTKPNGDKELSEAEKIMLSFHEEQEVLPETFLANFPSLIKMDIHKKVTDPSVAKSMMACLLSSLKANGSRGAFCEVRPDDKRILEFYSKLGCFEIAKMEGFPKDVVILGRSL
Assay: Rat OGA occupancy of thiamet G
Format: in vivo
Conditions: 2 h before tracer

LSN3316612 tracer uptake blocked (thiamet G 30 mg/kg p.o.): 80%
LSN3316612 tracer uptake blocked (thiamet G 100 mg/kg p.o.): 94%
SMILES: CCN=C1N[C@@H]2[C@@H](O)[C@H](O)[C@@H](CO)O[C@@H]2S1 [thiamet G]
